The assay addresses Histone deacetylase.
Description: Inhibitory activity against histone deacetylase (HDAC)
In the case of `CN(C)c1ccc(C(=O)NCCCCCC(=O)NO)cc1`, the IC50 (usually the concentration that inhibits the measured activity by half) turned out to be 0.152 µM. The same measure for `C[C@H](/C=C/C=C/C(=O)NO)NC(=O)c1ccc(N(C)C)cc1`: 12.187 µM; for `C[C@H](CCCCC(=O)NO)NC(=O)c1ccc(N(C)C)cc1`: 0.359 µM.
